Laboratory results reported in US11279683B2, “Thiophene derivatives as antiviral agents” (ENYO PHARMA, priority 2016, dated 2022).

What follows are compounds tested on H1N1 (influenza A/New Caledonia/20/99) (assay: microbe, parasite or virus in culture). Conditions: not given.
Assay type: cell-based
Compound `O=C(Nc1ccc(Cl)cc1)c1c(NC(=O)C2CCC(C(=O)O)CC2)sc2c1CCC2` (single isomer, unassigned) [Compound 98, 4-[[3-[(4-chlorophenyl)carbamoyl]-5,6-dihydro-4H-cyclopenta[b]thiophen-2-yl]carbamoyl]cyclohexanecarboxylic acid] has an IC50 of 15.9 µM.

Same assay, conditions: Influenza A virus, H1N1, A549, 48 h
Compound `CC(C)(CC(=O)O)CC(=O)Nc1sc2c(c1C(=O)Nc1ccc(Cl)cc1)CCC2` [Compound 47, 5-[[3-[(4-Chlorophenyl)carbamoyl]-5,6-dihydro-4H-cyclopenta[b]thiophen-2-yl]amino]-3,3-dimethyl-5-oxo-pentanoic acid] has an IC50 of 22.7 µM. `CS(=O)(=O)N[C@@H]1CCCC[C@@H]1C(=O)Nc1sc2c(c1C(=O)Nc1ccc(Cl)cc1)CCC2` [Compound 85, N-(4-chlorophenyl)-2-[[(1S,2R)-2-(methanesulfonamido)cyclohexanecarbonyl]amino]-5,6-dihydro-4H-cyclopenta[b]thiophene-3-carboxamide] showed an IC50 of 5.6 µM. For `NC(=O)C1CCCCC1C(=O)Nc1sc2c(c1C(=O)Nc1ccc(Cl)cc1)CCC2` (stereo not drawn) [Compound 55, N2-[3-[(4-Chlorophenyl)carbamoyl]-5,6-dihydro-4H-cyclopenta[b]thiophen-2-yl]cyclohexane-1,2-dicarboxamide], the IC50 was 27 µM. In the case of `CCc1c(C)sc(NC(=O)C2CCCCC2C(=O)O)c1C(=O)Nc1ccccc1` (stereo not drawn) [Compound 73, 2-[[4-Ethyl-5-methyl-3-(phenylcarbamoyl)-2-thienyl]carbamoyl]cyclohexanecarboxylic acid], the IC50 is reported as 24.6 µM. Compound `O=C(Nc1cccc(Cl)c1)c1c(NC(=O)C2CCCCC2C(=O)O)sc2c1CCC2` (stereo not drawn) [Compound 17, 2-[[3-[(3-Chlorophenyl)carbamoyl]-5,6-dihydro-4H-cyclopenta[b]thiophen-2-yl]carbamoyl]cyclohexanecarboxylic acid] has an IC50 of 4.88 µM. Compound `O=C1CCCC(C(=O)Nc2sc3c(c2C(=O)Nc2ccc(Cl)cc2)CCC3)C1` (stereo not drawn) [Compound 53, N-(4-Chlorophenyl)-2-[(3-oxocyclohexanecarbonyl)amino]-5,6-dihydro-4H-cyclopenta[b]thiophene-3-carboxamide] has an IC50 of 12.8 µM. For `O=C(Nc1ccc(C(F)(F)F)nc1)c1c(NC(=O)C2CCCCC2C(=O)O)sc2c1CCC2` (stereo not drawn) [Compound 32, 2-[[3-[[6-(Trifluoromethyl)-3-pyridyl]carbamoyl]-5,6-dihydro-4H-cyclopenta[b]thiophen-2-yl]carbamoyl]cyclohexanecarboxylic acid], the IC50 was 22 µM. In the case of `O=C(Nc1ccc(Cl)cc1)c1c(NC(=O)C2CCCCC2)sc2c1CCC2` [Compound 52, N-(4-Chlorophenyl)-2-(cyclohexanecarbonylamino)-5,6-dihydro-4H-cyclopenta[b]thiophene-3-carboxamide], the IC50 is reported as 29.3 µM. `O=C(Nc1ccc(Cl)cc1)c1c(NC(=O)C2CC=CCC2C(=O)O)sc2c1CCC2` (stereo not drawn) [Compound 48, 6-[[3-[(4-Chlorophenyl)carbamoyl]-5,6-dihydro-4H-cyclopenta[b]thiophen-2-yl]carbamoyl]cyclohex-3-ene-1-carboxylic acid] showed an IC50 of 11.2 µM. For `O=C(Nc1ccc(Cl)cc1)c1c(NC(=O)C2CCC(C(=O)O)CC2)sc2c1CCC2` (single isomer, unassigned) [Compound 97, 4-[[3-[(4-chlorophenyl)carbamoyl]-5,6-dihydro-4H-cyclopenta[b]thiophen-2-yl]carbamoyl]cyclohexanecarboxylic acid], the IC50 was 14.7 µM. `O=C(Nc1ccc(CO)cc1)c1c(NC(=O)C2CCCCC2C(=O)O)sc2c1CCC2` (stereo not drawn) [Compound 19, 2-[[3-[[4-(Hydroxymethyl)phenyl]carbamoyl]-5,6-dihydro-4H-cyclopenta[b]thiophen-2-yl]carbamoyl]cyclohexanecarboxylic acid] was tested, and the IC50 was 30.8 µM. `Cc1cncc(NC(=O)c2c(NC(=O)C3CCCCC3C(=O)O)sc3c2CCC3)c1` (stereo not drawn) [Compound 33, 2-[[3-[(5-Methyl-3-pyridyl)carbamoyl]-5,6-dihydro-4H-cyclopenta[b]thiophen-2-yl]carbamoyl]cyclohexanecarboxylic acid] gave an IC50 of 27.4 µM. `CS(=O)(=O)N1CCOCC1C(=O)Nc1sc2c(c1C(=O)Nc1ccc(Cl)cc1)CCC2` (stereo not drawn) [Compound 93, N-[3-[(4-chlorophenyl)carbamoyl]-5,6-dihydro-4H-cyclopenta[b]thiophen-2-yl]-4-methylsulfonyl-morpholine-3-carboxamide] was tested, and the IC50 was 12.7 µM. `CC(C)(C)c1ccc(NC(=O)c2c(NC(=O)C3CCCCC3C(=O)O)sc3c2CCC3)cc1` (stereo not drawn) [Compound 21, 2-[[3-[(4-tert-Butylphenyl)carbamoyl]-5,6-dihydro-4H-cyclopenta[b]thiophen-2-yl]carbamoyl]cyclohexanecarboxylic acid] showed an IC50 of 4.68 µM. Work on `Cc1cccc(NC(=O)c2c(NC(=O)C3CC=CCC3C(=O)O)sc3c2CCCC3)c1` (stereo not drawn) [Compound 68, 6-[[3-(m-Tolylcarbamoyl)-4,5,6,7-tetrahydrobenzothiophen-2-yl]carbamoyl]cyclohex-3-ene-1-carboxylic acid] yielded an IC50 of 11.7 µM. `O=C(NCc1ccccc1)c1c(NC(=O)C2CCCCC2C(=O)O)sc2c1CCC2` (stereo not drawn) [Compound 63, 2-[[3-(Benzylcarbamoyl)-5,6-dihydro-4H-cyclopenta[b]thiophen-2-yl]carbamoyl]cyclohexanecarboxylic acid] was tested, and the IC50 was 21.4 µM. `O=C(Nc1ccc(C(F)(F)F)cc1)c1c(NC(=O)C2CCCCC2C(=O)O)sc2c1CCC2` (stereo not drawn) [Compound 27, 2-[[3-[[4-(Trifluoromethyl)phenyl]carbamoyl]-5,6-dihydro-4H-cyclopenta[b]thiophen-2-yl]carbamoyl]cyclohexanecarboxylic acid] was tested, and the IC50 was 18.1 µM. Work on `NS(=O)(=O)N1CCCCC1C(=O)Nc1sc2c(c1C(=O)Nc1ccc(Cl)cc1)CCC2` (stereo not drawn) [Compound 80, N-[3-[(4-chlorophenyl)carbamoyl]-5,6-dihydro-4H-cyclopenta[b]thiophen-2-yl]-1-sulfamoyl-piperidine-2-carboxamide] yielded an IC50 of 2.25 µM. Work on `CC(C)c1cc(C(=O)Nc2ccccc2)c(NC(=O)C2CCCCC2C(=O)O)s1` (stereo not drawn) [Compound 72, 2-[[5-Isopropyl-3-(phenylcarbamoyl)-2-thienyl]carbamoyl]cyclohexanecarboxylic acid] yielded an IC50 of 9.92 µM. For `NC(=O)N1CCCC(C(=O)Nc2sc3c(c2C(=O)Nc2ccc(Cl)cc2)CCC3)C1` (stereo not drawn) [Compound 92, N3-[3-[(4-chlorophenyl)carbamoyl]-5,6-dihydro-4H-cyclopenta[b]thiophen-2-yl]piperidine-1,3-dicarboxamide], the IC50 was 11.4 µM. `COc1cccc(NC(=O)c2c(NC(=O)C3CCCCC3C(=O)O)sc3c2CCC3)c1` (stereo not drawn) [Compound 64, 2-[[3-[(3-Methoxyphenyl)carbamoyl]-5,6-dihydro-4H-cyclopenta[b]thiophen-2-yl]carbamoyl]cyclohexanecarboxylic acid] was tested, and the IC50 was 14.1 µM. Work on `CCCCCNC(=O)c1c(NC(=O)C2CCCCC2C(=O)O)sc2c1CCC2` (stereo not drawn) [Compound 22, 2-[[3-(pentylcarbamoyl)-5,6-dihydro-4H-cyclopenta[b]thiophen-2-yl]carbamoyl]cyclohexanecarboxylic acid] yielded an IC50 of 20.3 µM. For `O=C(Nc1cnc(Cl)cn1)c1c(NC(=O)C2CCCCC2C(=O)O)sc2c1CCC2` (stereo not drawn) [Compound 26, 2-[[3-[(5-Chloropyrazin-2-yl)carbamoyl]-5,6-dihydro-4H-cyclopenta[b]thiophen-2-yl]carbamoyl]cyclohexanecarboxylic acid], the IC50 was 19.3 µM.
